Data taken from US9290464B2 (priority 2010, dated 2016).

Assays:
[1] = system: MPTP-induced monkey; assay: Parkinson's disease score in MPTP-induced monkey; assay type: in vivo, Macaque monkeys; conditions: 1 mg/kg oral for 4 weeks after MPTP; compared with group given 1 mg/kg rasagiline; FIG. 1
Description: Macaque monkeys (n=35, 3 to 4-year-old) were used as an experimental model. The macaque monkeys were divided into three groups, and 0.2 mg/kg of MPTP was administered to each group (once a day, every day, until Parkinson's disease score reaches 8 or for 14 days) via intravenous injection. […] In addition, to confirm the effect of […] as a dopamine agonist, dopamine transporters existing in medial striatum and caudal striatum taken from the MPTP-induced monkey model were subjected to a dopamine transporter binding assay.
The extent of Parkinson's disease was measured by analyzing videotaped behaviors of each group of monkeys, based on four standards: a) range of movement, b) hypokinesia, c) extent of abnormal posture, and d) tremor. A Parkinson's disease score was evaluated by the sum of (4-range of movement)+hypokinesia+extent of abnormal posture+tremor. […] The Parkinson's disease score was measured for 10 minutes every 30 minutes through 2 hours. That is, the maximum value of the highest Parkinson's disease score is 40. Meanwhile, the measurement method performed based on the four standards was as follows, and evaluated scores below represent representative behaviors observed through observation periods: […]

[2] = system: cytochrome c; assay: Release of cytochrome c into cytoplasm (western blot) in MPP+-treated cells; assay type: cell-based, human; conditions: MPP+-added neurons; FIG. 17
Excerpt: In addition, apoptosis is known to be caused by mechanisms of release of cytochrome c from mitochondria and activation of caspase 3 (The New England journal of Medicine, 348:1365-1375 (2003)). To confirm whether or not the stability of the transmembrane potential of mitochondria by the treatment of CBI is associated with anti-apoptosis of neurons, cell extracts were obtained from the groups of cells, and thus the amount of cytochrome c and the activity of caspase 3 in the cell cytoplasm were measured.
SH-SY5Y cells were incubated under the same conditions as described in Example 7, and then washed with PBS. A protease inhibitor cocktail (Roche) and a phosphatase inhibitor cocktail (Roche) were added to a […] buffer (20 mM HEPES, 10 mM KCl, 2 mM MgCl2, 1 mM EDTA), and the SH-SY5Y cells were treated with 100 ul of the resulting solution and then suspended uniformly. The resultant was maintained on ice for 30 minutes, and then centrifuged at 12,000 rpm for 20 minutes. Subsequently, the same amount of the supernatant was loaded onto a SDS-PAGE gel followed by electrophoresis, the gel was transferred onto a nitrocellulose membrane, the membrane was blotted using cytochrome c (Santacruz, sc13156) diluted to 1:2000 by using a well-known method in the art, and the expression of cytochrome c was evaluated using ECL kit (Amersham Pharmacia).

[3] = system: MAO-B-deficient human neuroblastoma SH-SY5Y cells; assay: Transmembrane potential of mitochondria (MitoPT kit) in MPP+-treated cells; assay type: cell-based; conditions: 2 mM MPP+, 24 hours, FIG. 16
Description: In this embodiment, MAO-B-deficient human neuroblastoma SH-SY5Y cells (Korean Cell Line Bank) were used. The cells were incubated in a DMEM medium in 5% of CO2 at 37° C. for 24 hours. The cultured cells were divided into five groups, 2 mM of 1-methyl-4-phenyl-pyridium (MPP^+) was added to each group, three of the five groups were respectively treated with 1 nM, 10 nM and 50 nM of CBI, one of the other two groups was treated with 10 nM of rasagiline, and the CBI- or rasagiline-treated four groups were further incubated in 5% of CO2 at 37° C. for 24 hours. The group with only MPP^+ added thereto was incubated under the same conditions as describe dabove. Subsequently, according to manufacturer's protocols, the transmembrane potential of mitochondria was determined using MitoPT™ kit (Immunochemistry Technology). The transmembrane potential of mitochondria was confirmed using a fluorescent plate reader (Tecan, Austria). […] Thus, RFU values (red fluorescence value/green fluorescence value) were determined from the results, and the results are shown in FIG. 16.

[4] = system: dopamine transporter; assay: Dopamine transporter binding assay ([125I]PE2I) on striatum sections of MPTP-induced monkey; assay type: in vivo, Macaque monkeys; conditions: FIG. 2
[5] = system: MPTP-induced mouse; assay: Tail suspension test in MPTP-induced mouse; assay type: in vivo, C57BL/6 mice; conditions: FIG. 3
Description: The tail suspension test was performed to measure the extent of causation of behavioral loss according to the administration of MPTP and medicines. The TST was performed in such a manner that 7 days after the compounds described above are respectively administered to the three groups, a circular stainless steel stick with a width of 1 cm was fixed to a cage with a width of 16 cm and a height of 40 cm located at a height of 35 cm and whose left and right sides were covered by black wood. The movement time of the mice was measured for 6 minutes in a second unit, and thus the efficacies of the compounds were evaluated.

[6] = system: caspase 3; assay: Activity of caspase 3/7 (Apo-ONE) in MPP+-treated cells; assay type: cell-based, human; conditions: 2 mM MPP+, 24 hours; CBI 1, 5, 10 and 50 nM, rasagiline 50 nM; FIG. 18
Description: SH-SY5Y cells were incubated in a 96-well plate at a concentration of 5×10^5 cells/well under the same conditions as described above, the cells were treated with 2 mM of MPP^+ and CBI (1, 5, 10 and 50 nM) or rasagiline (50 nM), and the resulting cells were incubated for 24 hours. Subsequently, 100 μl of Apo-ONE caspase 3/7 reagent (Promega, G7790) was added thereto and mixed therewith, and the resultant was further incubated for 4 hours. After the incubation was terminated, fluorescence was measured at an excitation wavelength of 495 nm and an emission wavelength of 521 nm by using a fluorescence plate reader (GeminiXPS, Molecular Devices).

[7] = system: GPx; assay: Activity of GPx in striatum and substantia nigra of mouse; assay type: in vivo, C57BL/6 mice; conditions: 1 mg/kg oral for 8 days, no neurotoxin, FIG. 22
[8] = system: SOD; assay: Activity of SOD in striatum and substantia nigra of mouse; assay type: in vivo, C57BL/6 mice; conditions: 1 mg/kg oral for 8 days, no neurotoxin; FIG. 22
Description: Next day after the last day of administration, striatum and substantia nigra tissues were taken out of each group of mice. Cell extracts were obtained from the cells of the tissues, and thus the activities of the catalase, SOD and GPx were measured.

For `NC(=O)OCc1cc(-c2ccc(OCc3ccccc3)cc2)no1` [CBI, carbamic acid 3-(4-benzyloxy-phenyl)-isoxazole-5-yl methylester], the “extent of Parkinson's disease (Parkinson's disease score)” value [1] was “significantly decreased extent of Parkinson's disease”, the “amount of cytochrome c in the cytoplasm” value [2] was “decreased” and the “amount of cytochrome c released from mitochondria compared with same amount of rasagiline” value [2] was “smaller”. The “transmembrane potential of mitochondria” value ([3]; 1 nM, 10 nM and 50 nM) was “stabilized concentration-dependently”, the “stability effect of the transmembrane potential of mitochondria relative to same concentration of rasagiline” value ([3]; rasagiline 10 nM) was “no less than 2 times” and the “dopamine transporters in medial striatum and caudal striatum” value ([4]; 1 mg/kg oral for 4 weeks after MPTP) was “a large number of dopamine transporters”. The “amount of dopamine transporters compared with rasagiline group” value ([4]; same amount (1 mg/kg) of rasagiline) was “significantly larger amount of dopamine transporters”, the “behavioral restoration in tail suspension test compared with rasagiline group” value ([5]; 1 mg/kg oral each) was “excellent capability of behavioral restoration” and the “behaviors in tail suspension test” value ([5]; 1 mg/kg oral once a day after MPTP 30 mg/kg i.p. x 4 days) was “the same extent of behaviors as those of normal mice”. For the same compound, the “activity of caspase 3” value [6] was “reduced”, the “increase of the activity of the GPx in substantia nigra” value [7] was “about 28%” and the “activity of the SOD” value [8] was “no significant change”.
